What was measured:
Format in all cases: cell-based, human
[1] = tested on: ER+ tumor-derived cells and cell lines; assay: OXPHOS potential (Seahorse) in HT-treated cancer cells; conditions: fulvestrant; FIG. 11c
Excerpt: (§1) (Panel a), Representative bright field images of MCF7 po cells±CAF-EVs (3×10^9/weekly for 40 days). Bar graph of number of MS is also reported at the endpoint of the experiment (40 days). (Panel b), HT led to decreased expression of mRNA involved in protein synthesis and OXPHOS signaling with z score and -log (p-values)- as determined by Ingenuity analysis of microarray data from RNA isolated FIG. 5a (MCF7), single P values are also reported. (Panel c), OXPHOS potential determined as changes of respiration rate under mitochondrial stressors by seahorse technology (oligomycin 1 μM, rotenone 100 nM) in cancer cells isolated from FIG. 5b (MCF7, PT1). […] (Panel e), Mitochondrial Complex I/IV activity quantification as determined by nmol/min/mg of protein in luminal breast cancer cell lines from panel a. […]
Mitochondrial respiration and OXPHOS potential in cells was assessed using Seahorse technology (www.seahorsebio.com)(Qian, W. & Van Houten, B. Alterations in bioenergetics due to changes in mitochondrial DNA copy number. Methods 51, 452-457 (2010)). Oxygen consumption rate (OCR), extracellular acidification rate and glycolytic potential were determined using the Seahorse extracellular flux analyzer (XF-96, XF-24 Seahorse Bioscience). […] Furthermore OXPHOS potential was determined by measuring the area of the progress curve after the addition of glucose and rotenone/oligomycin.

[2] = tested on: mitochondrial complex I and IV; assay: Mitochondrial complex I/IV activity in HT-treated luminal breast cancer cell lines; conditions: fulvestrant; FIG. 11e
Excerpt: as §1
To measure mitochondrial complex activity, cell pellets were resuspended in assay buffer (125 mM sucrose, 0.1 mM EDTA, 25 mM Tris-HCl pH 7.5, 0.025% Lauryl-β-D-maltoside), and enzymatic activities were assayed with 0.1-0.4·10^6 cells/ml at 25° C. spectrophotometrically. NADH:HAR reductase activity of Complex I was measured as a decrease in absorption at 340 nm (ε340 nm=6.22 mM-1 cm-1) with 200 μM NADH, 1mM HAR and 1 mM KCN. Complex IV activity was measured as cytochrome oxidation at 550 nm (ε550 nm=21.5 mM-cm-) with 50 μM ferrocytochrome c. […] Protein content was determined with a BCA assay.

[3] = tested on: mitochondrial complex protein; assay: Western blot of OXPHOS protein cocktail in HT-treated cells; conditions: fulvestrant; FIG. 11d
Excerpt: as §1
For immunoblotting assays, cells were lysed in buffer (50 mmol/L Tris at pH 7.5, 150 mmol/L NaCl, 5 μg/mL aprotinin, pepstatin, 1% NP-40, lmmol/L EDTA, 0.25% deoxycholate, and protease inhibitor cocktail tablet, Sigma). […] The enrichment of CAFs in xenografts was determined by desmin immunohistochemistry (IHC) in tumor-derived sections. […] Viable cells were determined 7-14 days after treatment using trypan blue and cell counting using bright field microscopy or DAPI exclusion staining by flow cytometry (Dako Cytomation). […]

C[C@]12CC[C@@H]3c4ccc(O)cc4C[C@@H](CCCCCCCCC[S+]([O-])CCCC(F)(F)C(F)(F)F)[C@H]3[C@@H]1CC[C@@H]2O (stereo partly drawn) [fulvestrant]
reduced: OXPHOS potential in cells treated with HT [1] | mitochondrial complex I and IV activity in cells treated with HT [2] | mitochondrial complex protein expression in cells treated with HT [3]

— patent publication US20190382850A1, “METHOD FOR IDENTIFYING MITOCHONDRIAL DNA IN EXTRACELLULAR VESICLES AND TREATMENT OF MTDNA-RELATED DISORDERS AND CANCER” (Memorial Sloan-Kettering Cancer Center, priority 2017, published 2019)
